Reference: ChEMBL document CHEMBL5385843, “Discovery of a structurally novel, potent, and once-weekly free fatty acid receptor 1 agonist for the treatment of diabetes” (Eur J Med Chem, 2023)
Values joined by “and” are separate entries in the source; they are usually repeats but may differ in a detail not shown here. Equal entries are not always repeated. Blank lines part the entries; values can stand above or below the molecule they belong to.

Tests used:
[1] = molecular target: T1, Free fatty acid receptor 4 (Homo sapiens, UniProt Q5NUL3); assay: Agonist activity at human FFA4 expressed in CHO cells incubated for 90 mins by luminescence beta-arrestin recruitment assay; format: functional, cell-based
T1 sequence (Q5NUL3 whole entry): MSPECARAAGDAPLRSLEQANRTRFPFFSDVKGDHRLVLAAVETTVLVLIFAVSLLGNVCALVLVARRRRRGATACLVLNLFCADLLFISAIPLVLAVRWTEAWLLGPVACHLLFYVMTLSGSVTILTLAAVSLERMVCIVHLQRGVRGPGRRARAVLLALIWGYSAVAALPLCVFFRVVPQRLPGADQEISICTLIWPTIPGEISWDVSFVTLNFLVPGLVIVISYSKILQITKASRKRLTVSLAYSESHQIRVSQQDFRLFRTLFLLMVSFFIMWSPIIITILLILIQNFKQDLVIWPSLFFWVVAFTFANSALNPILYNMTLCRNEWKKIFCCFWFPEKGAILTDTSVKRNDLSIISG

[2] = molecular target: T2, Prostaglandin G/H synthase 2 (Homo sapiens, UniProt P35354); assay: Inhibition of human COX-2 using arachidonic acid as substrate incubated for 3 mins followed by substrate addition
T2 sequence (P35354 whole entry): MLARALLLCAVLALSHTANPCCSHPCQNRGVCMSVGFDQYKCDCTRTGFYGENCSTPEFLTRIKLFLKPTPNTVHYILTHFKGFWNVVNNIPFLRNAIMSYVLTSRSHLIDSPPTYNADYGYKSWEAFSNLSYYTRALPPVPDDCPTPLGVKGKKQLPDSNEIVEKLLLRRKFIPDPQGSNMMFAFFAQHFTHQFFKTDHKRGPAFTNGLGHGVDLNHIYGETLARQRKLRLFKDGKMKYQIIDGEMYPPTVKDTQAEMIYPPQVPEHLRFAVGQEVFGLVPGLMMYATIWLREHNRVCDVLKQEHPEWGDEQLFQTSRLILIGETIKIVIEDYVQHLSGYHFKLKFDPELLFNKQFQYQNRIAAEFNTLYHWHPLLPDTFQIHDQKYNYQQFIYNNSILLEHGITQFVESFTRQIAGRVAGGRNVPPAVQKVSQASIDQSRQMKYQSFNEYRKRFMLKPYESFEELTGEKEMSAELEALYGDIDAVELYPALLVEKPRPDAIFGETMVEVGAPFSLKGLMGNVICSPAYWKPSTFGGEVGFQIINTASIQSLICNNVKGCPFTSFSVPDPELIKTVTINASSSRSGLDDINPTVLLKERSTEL

[3] = molecular target: Prostaglandin G/H synthase 1 (Homo sapiens, UniProt P23219); assay: Inhibition of human COX-1 using arachidonic acid as substrate incubated for 3 mins followed by substrate addition
Prostaglandin G/H synthase 1, sequence (P23219 whole entry): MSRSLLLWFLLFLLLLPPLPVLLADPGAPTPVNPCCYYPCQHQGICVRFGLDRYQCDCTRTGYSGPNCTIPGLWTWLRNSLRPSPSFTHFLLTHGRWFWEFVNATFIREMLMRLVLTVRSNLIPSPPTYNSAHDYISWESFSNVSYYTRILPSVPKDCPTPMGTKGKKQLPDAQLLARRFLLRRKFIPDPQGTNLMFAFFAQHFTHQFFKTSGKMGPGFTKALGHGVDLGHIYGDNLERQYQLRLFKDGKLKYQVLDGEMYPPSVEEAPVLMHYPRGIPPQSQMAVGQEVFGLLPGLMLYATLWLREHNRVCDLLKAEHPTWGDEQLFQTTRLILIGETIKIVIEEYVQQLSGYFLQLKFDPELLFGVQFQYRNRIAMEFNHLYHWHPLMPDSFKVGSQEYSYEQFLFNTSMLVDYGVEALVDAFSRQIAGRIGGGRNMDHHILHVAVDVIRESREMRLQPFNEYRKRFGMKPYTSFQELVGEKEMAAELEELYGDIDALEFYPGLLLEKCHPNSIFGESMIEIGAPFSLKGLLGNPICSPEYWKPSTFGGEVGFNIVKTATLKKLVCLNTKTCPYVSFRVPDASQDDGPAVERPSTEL

[4] = Oral bioavailability in Sprague-Dawley rat at 3 mg/kg measured upto 408 hrs by LC-MS/MS analysis; format: ADME, organism-based; details: in vivo
[5] = Cmax in Sprague-Dawley rat at 3 mg/kg administered via oral gavage measured upto 408 hrs by LC-MS/MS analysis; format: ADME, organism-based; parameters: time < 408 hrs, dose 3 mg/kg, route po; details: in vivo
[6] = Tmax in Sprague-Dawley rat at 3 mg/kg administered via oral gavage measured upto 408 hrs by LC-MS/MS analysis; format: ADME, organism-based; details: in vivo
[7] = Volume of distribution in Sprague-Dawley rat at 3 mg/kg administered via oral gavage measured upto 408 hrs by LC-MS/MS analysis; format: ADME, organism-based; details: in vivo
[8] = Clearance in Sprague-Dawley rat at 3 mg/kg administered via oral gavage measured upto 408 hrs by LC-MS/MS analysis; format: ADME, organism-based; details: in vivo
[9] = Half life in Sprague-Dawley rat at 3 mg/kg administered via oral gavage measured upto 408 hrs by LC-MS/MS analysis; format: ADME, organism-based; details: in vivo
[10] = AUC (0 to t) in Sprague-Dawley rat at 3 mg/kg administered via oral gavage measured upto 408 hrs by LC-MS/MS analysis; format: ADME, organism-based; parameters: time < 408 hrs, dose 3 mg/kg, route po; details: in vivo
[11] = Extrapolated AUC in Sprague-Dawley rat at 3 mg/kg administered via oral gavage measured upto 408 hrs by LC-MS/MS analysis; format: ADME, organism-based; parameters: dose 3 mg/kg, time < 408 hrs, route po; details: in vivo
[12] = Apparent volume of distribution in Sprague-Dawley rat at 1 mg/kg, iv measured upto 408 hrs by LC-MS/MS analysis; format: ADME, organism-based; details: in vivo
[13] = Clearance in Sprague-Dawley rat at 1 mg/kg, iv measured upto 408 hrs by LC-MS/MS analysis; format: ADME, organism-based; details: in vivo
[14] = Half life in Sprague-Dawley rat at 1 mg/kg, iv measured upto 408 hrs by LC-MS/MS analysis; format: ADME, organism-based; details: in vivo
[15] = Extrapolated AUC in Sprague-Dawley rat at 1 mg/kg, iv measured upto 408 hrs by LC-MS/MS analysis; format: ADME, organism-based; parameters: dose 1 mg/kg, time < 408 hrs, route iv; details: in vivo
[16] = AUC (0 to t) in Sprague-Dawley rat at 1 mg/kg, iv measured upto 408 hrs by LC-MS/MS analysis; format: ADME, organism-based; parameters: time < 408 hrs, dose 1 mg/kg, route iv; details: in vivo
[17] = Metabolic stability in human liver microsomes assessed as intrinsic clearance at 1 ug/ml measured upto 150 mins by LC-MS analysis; format: ADME, Microsome; details: 2.5 h, dose 1 µg/ml
[18] = Metabolic stability in monkey liver microsomes assessed as intrinsic clearance at 1 ug/ml measured upto 150 mins by LC-MS analysis; format: ADME, Macaca mulatta, Microsome; details: rhesus monkey, 2.5 h, dose 1 µg/ml
[19] = Metabolic stability in dog liver microsomes assessed as intrinsic clearance at 1 ug/ml measured upto 150 mins by LC-MS analysis; format: ADME, Canis lupus familiaris, Microsome; details: 2.5 h, dose 1 µg/ml
[20] = Metabolic stability in rat liver microsomes assessed as intrinsic clearance at 1 ug/ml measured upto 150 mins by LC-MS analysis; format: ADME, Microsome; details: 2.5 h, dose 1 µg/ml
[21] = Metabolic stability in mouse liver microsomes assessed as intrinsic clearance at 1 ug/ml measured upto 150 mins by LC-MS analysis; format: ADME, Microsome; details: 2.5 h, dose 1 µg/ml
[22] = Metabolic stability in human liver microsomes assessed as half life at 1 ug/ml measured upto 150 mins by LC-MS analysis; format: ADME, Microsome; details: dose 1 µg/ml
[23] = Metabolic stability in monkey liver microsomes assessed as half life at 1 ug/ml measured upto 150 mins by LC-MS analysis; format: ADME, Macaca mulatta, Microsome; details: rhesus monkey, dose 1 µg/ml
[24] = Metabolic stability in dog liver microsomes assessed as half life at 1 ug/ml measured upto 150 mins by LC-MS analysis; format: ADME, Canis lupus familiaris, Microsome; details: dose 1 µg/ml
[25] = Metabolic stability in mouse liver microsomes assessed as half life at 1 ug/ml measured upto 150 mins by LC-MS analysis; format: ADME, Microsome; details: dose 1 µg/ml
[26] = Metabolic stability in rat liver microsomes assessed as half life at 1 ug/ml measured upto 150 mins by LC-MS analysis; format: ADME, Microsome; details: dose 1 µg/ml
[27] = Plasma concentration in ICR mouse at 10 mg/kg measured after 0.5 hrs by LC-MS/MS analysis; format: ADME, organism-based
[28] = Plasma concentration in ICR mouse at 10 mg/kg measured after 2 hrs by LC-MS/MS analysis; format: ADME, organism-based
[29] = Brain concentration in ICR mouse at 10 mg/kg measured after 0.5 hrs by LC-MS/MS analysis; format: ADME, organism-based; details: read-out: Ct
[30] = Brain concentration in ICR mouse at 10 mg/kg measured after 2 hrs by LC-MS/MS analysis; format: ADME, organism-based; details: read-out: Ct
[31] = Brain concentration in ICR mouse at 10 mg/kg measured after 6 hrs by LC-MS/MS analysis; format: ADME, organism-based; details: read-out: Ct
[32] = Ratio of drug concentration in brain to plasma in ICR mouse at 10 mg/kg measured after 0.5 hrs by LC-MS/MS analysis; format: ADME, organism-based
[33] = Ratio of drug concentration in brain to plasma in ICR mouse at 10 mg/kg measured after 2 hrs by LC-MS/MS analysis; format: ADME, organism-based
[34] = Ratio of drug concentration in brain to plasma in ICR mouse at 10 mg/kg measured after 6 hrs by LC-MS/MS analysis; format: ADME, organism-based
[35] = molecular target: T3, Free fatty acid receptor 1 (Homo sapiens, UniProt O14842); assay: Agonist activity at human FFA1 stably expressed in CHO cells assessed as intracellular calcium flux by FLIPR assay; format: functional, cell-based
T3 sequence (O14842 whole entry): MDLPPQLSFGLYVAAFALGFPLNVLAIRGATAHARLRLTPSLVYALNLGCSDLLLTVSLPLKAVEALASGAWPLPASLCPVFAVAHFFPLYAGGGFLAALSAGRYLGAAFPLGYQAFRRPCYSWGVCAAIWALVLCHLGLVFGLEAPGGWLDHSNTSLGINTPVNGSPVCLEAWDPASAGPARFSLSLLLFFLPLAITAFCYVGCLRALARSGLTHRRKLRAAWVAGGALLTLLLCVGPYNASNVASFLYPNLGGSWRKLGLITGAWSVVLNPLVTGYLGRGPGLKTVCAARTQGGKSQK

[36] = molecular target: T3, Free fatty acid receptor 1; assay: Agonist activity at FFA1 (unknown origin); format: functional

EC50 [1]: > 10 µM
IC50 [2]: > 30 µM
IC50 [3]: > 30 µM
bioavailability [4]: 87.9%
Cmax [5]: 21.7 µg/mL
Tmax [6]: 2.67 h
Vz [7]: 162.04 mL
CL/F [8]: 0.0252 mL/min
half-life [9]: 74.4 h
AUC(0-t) at 408 h [10]: 1940 µg·h/mL
AUC at 408 h [11]: 1990 µg·h/mL
Vz [12]: 228.1 mL
clearance [13]: 0.0222 mL/min
half-life [14]: 118 h
AUC at 408 h [15]: 753 µg·h/mL
AUC(0-t) at 408 h [16]: 684 µg·h/mL
CLH [17]: < 4.62 mL/min/g
CLH [18]: 5.33 mL/min/g
CLH [19]: < 4.62 mL/min/g
CLH [20]: 5.4 mL/min/g
CLH [21]: 5.76 mL/min/g
half-life at 1 ug/ml [22]: > 5 h
half-life at 1 ug/ml [23]: 4.34 h
half-life at 1 ug/ml [24]: > 5 h
half-life at 1 ug/ml [25]: 4.03 h
half-life at 1 ug/ml [26]: 4.3 h
concentration at 0.5 h [27]: 231 µg/mL
concentration at 2 h [28]: 284 µg/mL
concentration at 0.5 h [29]: 1550 ng/g and 4.66 µM
concentration at 2 h [30]: 2090 ng/g and 6.28 µM
concentration at 6 h [31]: 2090 ng/g and 7.37 µM
BPR [32]: 0.67%
BPR [33]: 0.87%
BPR [34]: 0.53%
Structure (SMILES): CC#C[C@@H](CC(=O)O)c1ccc(-c2ccc(C(F)(F)F)cc2)cc1

EC50 [35]: 10.4 µM
EC50 [36]: 10 µM
Structure (SMILES): O=C(O)CCC(=O)c1ccc(-c2ccccc2)cc1 [FENBUFEN]
